Data taken from PubChem BioAssay (NCI).
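Values below derive from 48-hour exposures of cells grown in 96-well plates, with endpoints linearly interpolated between the two concentrations bracketing the appropriate inhibition level. TGI is the concentration that stops growth completely.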

How the values were obtained:
Test in all cases: NCI-60 cell line screen, 48 h
DMS 273 small cell lung = tested on: DMS 273 small cell lung
SK-MEL-5 melanoma = tested on: SK-MEL-5 melanoma
HOP-92 NSCLC = tested on: HOP-92 NSCLC
CCRF-CEM leukemia = tested on: CCRF-CEM leukemia
TK-10 renal = tested on: TK-10 renal
COLO 205 colon = tested on: COLO 205 colon
SR leukemia = tested on: SR leukemia
A549 NSCLC = tested on: A549 NSCLC
HL-60(TB) leukemia = tested on: HL-60(TB) leukemia
HOP-18 NSCLC = tested on: HOP-18 NSCLC
HCC-2998 colon = tested on: HCC-2998 colon
UO-31 renal = tested on: UO-31 renal
SF-295 CNS = tested on: SF-295 CNS
SN12C renal = tested on: SN12C renal
SW-620 colon = tested on: SW-620 colon
HCT-116 colon = tested on: HCT-116 colon
SK-OV-3 ovarian = tested on: SK-OV-3 ovarian
OVCAR-5 ovarian = tested on: OVCAR-5 ovarian
M14 melanoma = tested on: M14 melanoma
UACC-62 melanoma = tested on: UACC-62 melanoma
ACHN renal = tested on: ACHN renal
SF-268 CNS = tested on: SF-268 CNS
NCI/ADR-RES ovarian = tested on: NCI/ADR-RES ovarian
RXF 393 renal = tested on: RXF 393 renal
HS 578T breast = tested on: HS 578T breast
OVCAR-4 ovarian = tested on: OVCAR-4 ovarian
MDA-MB-435 = tested on: MDA-MB-435
T-47D breast = tested on: T-47D breast
SK-MEL-28 melanoma = tested on: SK-MEL-28 melanoma
MDA-N = tested on: MDA-N
SK-MEL-2 melanoma = tested on: SK-MEL-2 melanoma
NCI-H460 lung = tested on: NCI-H460 lung
MALME-3M melanoma = tested on: MALME-3M melanoma
MCF7 breast = tested on: MCF7 breast
SF-539 CNS = tested on: SF-539 CNS
MOLT-4 leukemia = tested on: MOLT-4 leukemia
KM12 colon = tested on: KM12 colon
NCI-H23 lung = tested on: NCI-H23 lung
DU-145 prostate = tested on: DU-145 prostate
SNB-19 CNS = tested on: SNB-19 CNS
OVCAR-3 ovarian = tested on: OVCAR-3 ovarian
786-0 renal = tested on: 786-0 renal
CAKI-1 renal = tested on: CAKI-1 renal
OVCAR-8 ovarian = tested on: OVCAR-8 ovarian
U251 CNS = tested on: U251 CNS
A498 renal = tested on: A498 renal
K-562 leukemia = tested on: K-562 leukemia
HOP-62 NSCLC = tested on: HOP-62 NSCLC
UACC-257 melanoma = tested on: UACC-257 melanoma
BT-549 breast = tested on: BT-549 breast
HT29 colon = tested on: HT29 colon
HCT-15 colon = tested on: HCT-15 colon
MDA-MB-231 breast = tested on: MDA-MB-231 breast
PC-3 prostate = tested on: PC-3 prostate
NCI-H226 lung = tested on: NCI-H226 lung
IGROV1 ovarian = tested on: IGROV1 ovarian
EKVX NSCLC = tested on: EKVX NSCLC
NCI-H522 lung = tested on: NCI-H522 lung
LOX IMVI melanoma = tested on: LOX IMVI melanoma
RPMI-8226 leukemia = tested on: RPMI-8226 leukemia
SNB-75 CNS = tested on: SNB-75 CNS

CC(=O)Oc1cc(OC(C)=O)c2c(c1)OC(c1ccc(OC(C)=O)c(OC(C)=O)c1)CC2=O (stereo not given)
TGI (DMS 273 small cell lung): > 100 µM | TGI (SK-MEL-5 melanoma): > 100 µM | TGI (HOP-92 NSCLC): 69.4 µM | TGI (CCRF-CEM leukemia): > 100 µM | TGI (TK-10 renal): > 100 µM | TGI (COLO 205 colon): > 100 µM | TGI (SR leukemia): 49 µM | TGI (A549 NSCLC): > 100 µM | TGI (HL-60(TB) leukemia): 29.7 µM | TGI (HOP-18 NSCLC): 95.8 µM | TGI (HCC-2998 colon): > 100 µM | TGI (UO-31 renal): > 100 µM | TGI (SF-295 CNS): > 100 µM | TGI (SN12C renal): > 100 µM | TGI (SW-620 colon): > 100 µM | TGI (HCT-116 colon): > 100 µM | TGI (SK-OV-3 ovarian): > 100 µM

Nc1nc(-c2ccc3ccccc3c2)cc(-c2cc(-c3ccc4ccccc4c3)nc(N)n2)n1
TGI (OVCAR-5 ovarian): > 100 µM | TGI (M14 melanoma): > 100 µM | TGI (UACC-62 melanoma): > 100 µM | TGI (SK-MEL-5 melanoma): > 100 µM | TGI (ACHN renal): > 100 µM | TGI (HOP-92 NSCLC): > 100 µM | TGI (CCRF-CEM leukemia): > 100 µM | TGI (SF-268 CNS): > 100 µM | TGI (NCI/ADR-RES ovarian): > 100 µM | TGI (RXF 393 renal): > 100 µM | TGI (TK-10 renal): > 100 µM | TGI (HS 578T breast): > 100 µM | TGI (COLO 205 colon): > 100 µM | TGI (OVCAR-4 ovarian): > 100 µM | TGI (MDA-MB-435): > 100 µM | TGI (T-47D breast): > 100 µM | TGI (SK-MEL-28 melanoma): > 100 µM | TGI (MDA-N): > 100 µM | TGI (SK-MEL-2 melanoma): > 100 µM | TGI (NCI-H460 lung): > 100 µM | TGI (SR leukemia): > 100 µM | TGI (MALME-3M melanoma): > 100 µM | TGI (MCF7 breast): > 100 µM | TGI (A549 NSCLC): > 100 µM | TGI (HL-60(TB) leukemia): > 100 µM | TGI (SF-539 CNS): > 100 µM | TGI (MOLT-4 leukemia): > 100 µM | TGI (KM12 colon): > 100 µM | TGI (NCI-H23 lung): > 100 µM | TGI (DU-145 prostate): > 100 µM | TGI (SNB-19 CNS): > 100 µM | TGI (OVCAR-3 ovarian): > 100 µM | TGI (786-0 renal): > 100 µM | TGI (CAKI-1 renal): > 100 µM | TGI (OVCAR-8 ovarian): > 100 µM | TGI (U251 CNS): > 100 µM | TGI (A498 renal): > 100 µM | TGI (HCC-2998 colon): > 100 µM | TGI (K-562 leukemia): > 100 µM | TGI (HOP-62 NSCLC): > 100 µM | TGI (UO-31 renal): > 100 µM | TGI (UACC-257 melanoma): > 100 µM | TGI (BT-549 breast): > 100 µM | TGI (HT29 colon): > 100 µM | TGI (SF-295 CNS): > 100 µM | TGI (SN12C renal): > 100 µM | TGI (HCT-15 colon): > 100 µM | TGI (SW-620 colon): > 100 µM | TGI (HCT-116 colon): > 100 µM | TGI (MDA-MB-231 breast): > 100 µM | TGI (PC-3 prostate): > 100 µM | TGI (SK-OV-3 ovarian): > 100 µM | TGI (NCI-H226 lung): > 100 µM | TGI (IGROV1 ovarian): > 100 µM | TGI (EKVX NSCLC): > 100 µM | TGI (NCI-H522 lung): > 100 µM | TGI (LOX IMVI melanoma): > 100 µM | TGI (RPMI-8226 leukemia): > 100 µM

CCOC(=O)[C@H](CO)Nc1c(O)c2c(c(O)c1Cl)C(=O)C=CC2=O
TGI (OVCAR-5 ovarian): > 10 µM | TGI (M14 melanoma): > 10 µM | TGI (UACC-62 melanoma): > 10 µM | TGI (SK-MEL-5 melanoma): > 10 µM | TGI (ACHN renal): > 10 µM | TGI (HOP-92 NSCLC): > 10 µM | TGI (CCRF-CEM leukemia): > 10 µM | TGI (SF-268 CNS): > 10 µM | TGI (NCI/ADR-RES ovarian): > 10 µM | TGI (RXF 393 renal): > 10 µM | TGI (TK-10 renal): > 10 µM | TGI (HS 578T breast): > 10 µM | TGI (COLO 205 colon): > 10 µM | TGI (OVCAR-4 ovarian): > 10 µM | TGI (MDA-MB-435): > 10 µM | TGI (T-47D breast): > 10 µM | TGI (SK-MEL-28 melanoma): > 10 µM | TGI (MDA-N): > 10 µM | TGI (SK-MEL-2 melanoma): > 10 µM | TGI (NCI-H460 lung): > 10 µM | TGI (SR leukemia): > 10 µM | TGI (MALME-3M melanoma): > 10 µM | TGI (MCF7 breast): > 10 µM | TGI (A549 NSCLC): > 10 µM | TGI (HL-60(TB) leukemia): > 10 µM | TGI (SF-539 CNS): > 10 µM | TGI (MOLT-4 leukemia): > 10 µM | TGI (KM12 colon): > 10 µM | TGI (NCI-H23 lung): > 10 µM | TGI (DU-145 prostate): > 10 µM | TGI (SNB-19 CNS): > 10 µM | TGI (OVCAR-3 ovarian): > 10 µM | TGI (786-0 renal): > 10 µM | TGI (CAKI-1 renal): > 10 µM | TGI (OVCAR-8 ovarian): > 10 µM | TGI (U251 CNS): > 10 µM | TGI (HCC-2998 colon): > 10 µM | TGI (K-562 leukemia): > 10 µM | TGI (SNB-75 CNS): > 10 µM | TGI (HOP-62 NSCLC): > 10 µM | TGI (UACC-257 melanoma): > 10 µM | TGI (BT-549 breast): > 10 µM | TGI (HT29 colon): > 10 µM | TGI (SF-295 CNS): > 10 µM | TGI (SN12C renal): > 10 µM | TGI (HCT-15 colon): > 10 µM | TGI (SW-620 colon): > 10 µM | TGI (HCT-116 colon): > 10 µM | TGI (MDA-MB-231 breast): > 10 µM | TGI (PC-3 prostate): > 10 µM | TGI (SK-OV-3 ovarian): > 10 µM | TGI (NCI-H226 lung): > 10 µM | TGI (IGROV1 ovarian): > 10 µM | TGI (EKVX NSCLC): > 10 µM | TGI (NCI-H522 lung): > 10 µM | TGI (LOX IMVI melanoma): > 10 µM | TGI (RPMI-8226 leukemia): > 10 µM

Cc1ccc(Cc2n[nH]c(=O)n2N2C(=O)c3ccccc3C2=O)cc1
TGI (OVCAR-5 ovarian): > 100 µM | TGI (M14 melanoma): > 100 µM | TGI (UACC-62 melanoma): > 100 µM | TGI (SK-MEL-5 melanoma): > 100 µM | TGI (ACHN renal): > 100 µM | TGI (HOP-92 NSCLC): > 100 µM | TGI (CCRF-CEM leukemia): > 100 µM | TGI (NCI/ADR-RES ovarian): > 100 µM | TGI (TK-10 renal): > 100 µM | TGI (HS 578T breast): > 100 µM | TGI (COLO 205 colon): > 100 µM | TGI (OVCAR-4 ovarian): > 100 µM | TGI (MDA-MB-435): > 100 µM | TGI (T-47D breast): > 100 µM | TGI (SK-MEL-28 melanoma): > 100 µM | TGI (MDA-N): > 100 µM | TGI (SK-MEL-2 melanoma): > 100 µM | TGI (NCI-H460 lung): > 100 µM | TGI (SR leukemia): > 100 µM | TGI (MALME-3M melanoma): > 100 µM | TGI (MCF7 breast): > 100 µM | TGI (A549 NSCLC): > 100 µM | TGI (SF-539 CNS): > 100 µM | TGI (MOLT-4 leukemia): > 100 µM | TGI (KM12 colon): > 100 µM | TGI (NCI-H23 lung): > 100 µM | TGI (DU-145 prostate): > 100 µM | TGI (SNB-19 CNS): > 100 µM | TGI (OVCAR-3 ovarian): > 100 µM | TGI (786-0 renal): > 100 µM | TGI (CAKI-1 renal): > 100 µM | TGI (OVCAR-8 ovarian): > 100 µM | TGI (U251 CNS): > 100 µM | TGI (A498 renal): > 100 µM | TGI (HCC-2998 colon): > 100 µM | TGI (K-562 leukemia): > 100 µM | TGI (SNB-75 CNS): > 100 µM | TGI (HOP-62 NSCLC): > 100 µM | TGI (UO-31 renal): > 100 µM | TGI (UACC-257 melanoma): > 100 µM | TGI (BT-549 breast): > 100 µM | TGI (HT29 colon): > 100 µM | TGI (SF-295 CNS): > 100 µM | TGI (SN12C renal): > 100 µM | TGI (HCT-15 colon): > 100 µM | TGI (SW-620 colon): > 100 µM | TGI (HCT-116 colon): > 100 µM | TGI (MDA-MB-231 breast): > 100 µM | TGI (PC-3 prostate): > 100 µM | TGI (NCI-H226 lung): > 100 µM | TGI (IGROV1 ovarian): > 100 µM | TGI (EKVX NSCLC): > 100 µM | TGI (LOX IMVI melanoma): > 100 µM
